# Assay results reported in patent US20220332700A1, “NOVEL APOPTOSIS SIGNAL-REGULATING KINASE 1 INHIBITORS” (MANKIND PHARMA LTD, priority 2019, published 2022).
# How the values were obtained:
# [1] = target: T1, Human ASK1 (Homo sapiens, UniProt Q99683); experiment: ASK1 Cell Based Assay (phospho p38 read out in hASK1 transfected HEK293T-AP1 cells); details: HEK293T-AP1 cells, 1 mM hydrogen peroxide, phospho p38; read-out: Cell Based Assay IC50
# T1 construct: expressed in transfected cells; host or cells: HEK293T-AP1
# T1 sequence (Q99683 1-1374): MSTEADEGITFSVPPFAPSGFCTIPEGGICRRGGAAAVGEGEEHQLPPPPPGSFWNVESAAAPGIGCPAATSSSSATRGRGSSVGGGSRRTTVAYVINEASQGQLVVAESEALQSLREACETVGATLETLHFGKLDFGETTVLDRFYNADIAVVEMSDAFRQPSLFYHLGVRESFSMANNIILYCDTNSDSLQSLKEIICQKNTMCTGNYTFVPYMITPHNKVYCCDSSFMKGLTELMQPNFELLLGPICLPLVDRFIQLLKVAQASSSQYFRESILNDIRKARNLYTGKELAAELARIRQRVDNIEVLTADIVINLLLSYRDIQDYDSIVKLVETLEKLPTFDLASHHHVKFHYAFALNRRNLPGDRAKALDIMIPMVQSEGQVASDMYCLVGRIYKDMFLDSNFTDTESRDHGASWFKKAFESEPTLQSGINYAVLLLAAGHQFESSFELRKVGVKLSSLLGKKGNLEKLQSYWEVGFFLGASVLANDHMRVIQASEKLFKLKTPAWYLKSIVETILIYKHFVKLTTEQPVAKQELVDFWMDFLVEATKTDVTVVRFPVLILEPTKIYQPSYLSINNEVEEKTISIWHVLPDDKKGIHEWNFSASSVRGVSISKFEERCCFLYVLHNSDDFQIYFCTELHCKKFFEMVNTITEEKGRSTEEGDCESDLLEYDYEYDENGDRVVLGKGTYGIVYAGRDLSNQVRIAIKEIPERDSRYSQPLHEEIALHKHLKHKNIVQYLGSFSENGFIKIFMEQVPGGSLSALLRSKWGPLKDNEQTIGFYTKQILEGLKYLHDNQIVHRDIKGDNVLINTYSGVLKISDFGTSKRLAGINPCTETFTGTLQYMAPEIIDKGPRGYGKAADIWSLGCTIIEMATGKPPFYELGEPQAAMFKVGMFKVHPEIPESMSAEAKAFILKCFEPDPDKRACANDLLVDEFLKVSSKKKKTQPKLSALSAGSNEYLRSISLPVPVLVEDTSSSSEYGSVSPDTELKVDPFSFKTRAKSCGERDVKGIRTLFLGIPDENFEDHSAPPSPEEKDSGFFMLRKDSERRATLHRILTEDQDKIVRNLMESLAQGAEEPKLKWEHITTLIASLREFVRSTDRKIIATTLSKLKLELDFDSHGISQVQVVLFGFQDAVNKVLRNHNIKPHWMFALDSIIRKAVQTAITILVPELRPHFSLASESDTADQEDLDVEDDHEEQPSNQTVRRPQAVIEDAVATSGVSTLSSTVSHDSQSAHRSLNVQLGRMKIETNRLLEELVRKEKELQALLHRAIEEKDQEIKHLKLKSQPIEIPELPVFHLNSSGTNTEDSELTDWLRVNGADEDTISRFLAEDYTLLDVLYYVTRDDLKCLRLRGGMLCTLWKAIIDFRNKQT
# How it was run: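 HEK293T-AP1 cells transfected with hASK1, after 24 h treated with compounds for 24 h (0.2% DMSO), then stimulated with 1 mM H2O2 for 1 h with compounds present.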
# [2] = target: T2, recombinant ASK1 (Homo sapiens, UniProt Q99683); experiment: ASK1 Biochemical Assay (HTRF KinEASE-STK S3); details: ATP 100 μM; read-out: Biochemical Assay IC50
# T2 construct: purchased Carna Biosciences
# How it was run: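 Recombinant ASK1 (5 ng) preincubated with compound 1 h at 23 °C in MOPS pH 7 buffer with Mg-acetate, DTT, NP40, glycerol, BSA and 1% DMSO. Inhibition calculated against vehicle after substrate-blank subtraction.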
IC50 [1] [nM],IC50 [2] [nM],SMILES
> 100,< 100,"CC(C)n1cnnc1-c1cccc(N2CCN(c3ccc(N4CCN(C(=O)CC#N)CC4)cc3)C2=O)n1 [Example 1137, 3-(4-(4-(3-(6-(4-isopropyl-4H-1,2,4-triazol-3-yl)pyridin-2-yl)-2-oxoimidazolidin-1-yl)phenyl)piperazin-1-yl)-3-oxopropanenitrile]"
> 100,< 100,"CC(C)n1cnnc1-c1cccc(N2CCN(c3ccc(N4CCC(F)CC4)cc3)C2=O)n1 [Example 1138, 1-(4-(4-fluoropiperidin-1-yl)phenyl)-3-(6-(4-isopropyl-4H-1,2,4-triazol-3-yl)pyridin-2-yl)imidazolidin-2-one]"
> 100,< 100,"CNC1(C2CCN(c3ccc(N4CCN(c5cccc(-c6nncn6C(C)C)n5)C4=O)cc3)CC2)COC1 [Example 1139, 1-(6-(4-isopropyl-4H-1,2,4-triazol-3-yl)pyridin-2-yl)-3-(4-(4-(3-(methylamino)oxetan-3-yl)piperidin-1-yl)phenyl)imidazolidin-2-one]"

SMILES,IC50 [1] [nM],IC50 [2] [nM]
"CNC(=O)C1CC2CCC(C1)N2c1ccc(N2CCN(c3cccc(-c4nncn4C(C)C)n3)C2=O)cc1 (centres unmarked) [Example 1140, 8-(4-(3-(6-(4-isopropyl-4H-1,2,4-triazol-3-yl)pyridin-2-yl)-2-oxoimidazolidin-1-yl)phenyl)-N-methyl-8-aza-bicyclo[3.2.1]octane-3-carboxamide]",< 100,< 50
